Reference: publication PMC6670175 (Virology Journal, 2019)
Several values for one entry are separate records, joined by “and”; a condition that tells them apart may be missing. Equal values may be shown once. Read-outs that look alike come from different tables or passages of the source. Ends that are not written are not given here.

Key:
PRV Ea strain = format: cell-based, pseudorabies virus
TGEV WH-1 strain = format: cell-based, transmissible gastroenteritis virus; conditions: for residual infectivity: n = 3
PRV-Ea [1] = system: PRV-Ea
PRV-HNXX = format: cell-based, pseudorabies virus; conditions: n = 3
PRV-Ea [2] = format: cell-based, pseudorabies virus
PEDV YNKM strain = format: cell-based, porcine epidemic diarrhea virus; conditions: for residual infectivity: n = 3
RV TM-a strain = format: cell-based, rotavirus; conditions: n = 3
[3] = system: PRV-152 (modified Bartha strain); format: cell-based, pseudorabies virus; conditions: n = 3
PRV-Ea [4] = system: PRV-Ea; remark: listed apart in the source
PRRSV YA isolate = format: cell-based, porcine reproductive and respiratory syndrome virus

Compound	antiviral activity against PRV (in words) (PRV Ea strain)	residual infectivity (PRV Ea strain; n = 3)	50% toxic concentration (TC50) (PK-15 cells; 48 h) [µg/mL]	decrease in the residual infectivity (PRV Ea strain)	residual infectivity (TGEV WH-1 strain) [%]	inhibitory activity against PRV HNXX (in words) (PRV-HNXX)	inhibitory effect on PRV, post-infection (curative) (PRV-Ea [2])	inhibitory effect on PRV, pre-infection (prophylactic) (PRV-Ea [2])	residual infectivity (PEDV YNKM strain)	residual infectivity (RV TM-a strain)	inhibitory activity against PRV 152 (in words) [3]	inhibition of PRV particles (in words) (PRV-Ea [4])	50% effective concentration (EC50) (PRV-Ea [4]; 1 h) [µg/mL]	other results
CC[C@H](C)[C@H](N)C(=O)N[C@@H](CC(C)C)C(=O)N1CCC[C@H]1C(=O)N[C@@H](Cc1c[nH]c2ccccc12)C(=O)N[C@@H](CCCCN)C(=O)N[C@@H](Cc1c[nH]c2ccccc12)C(=O)N1CCC[C@H]1C(=O)N[C@@H](Cc1c[nH]c2ccccc12)C(=O)N[C@@H](Cc1c[nH]c2ccccc12)C(=O)N1CCC[C@H]1C(=O)N[C@@H](Cc1c[nH]c2ccccc12)C(=O)N[C@@H](CCCNC(=N)N)C(=O)N[C@@H](CCCNC(=N)N)C(N)=O [indolicidin]	mild antiviral activity	34.6%	110.2											
FFHHIFRGIVHVGKTIHRLVTG [piscidin, piscidin 1]		around 2.3%		more than 30 folds	41.5	displayed inhibitory activities	No inhibitory effect	No inhibitory effect	lower than 50%	7.4%	displayed inhibitory activities	inhibit most of the PRV particles		brain pathology (H&E) (PRV-Ea [1]; mouse, in vivo): no specific symptom; clinical signs, peptide alone (PRV-Ea [1]; mouse, in vivo): remained asymptomatic; clinical symptoms versus PRV infected mice (PRV-Ea [1]; mouse, in vivo): symptoms appeared later and not so severe; outcome after re-challenge (PRV-Ea [1]; mouse, in vivo): all died; protection against PRV infection (in words) (PRV-Ea [1]; mouse, in vivo): obviously protected; survival and behaviour after peptide alone (PRV-Ea [1]; mouse, in vivo): All mice survived and behaved normally; survival rate of mice (PRV-Ea [1]; mouse, in vivo): 90%; survival rates at the end of the experiment (PRV-Ea [1]; mouse, in vivo): 30%; mice with severe neurological symptoms euthanized (PRV-Ea [1]; n = 10): 6 and 5 and 7; 50% toxic concentration (TC50) (PK-15 cells): 65.2 µg/mL; 50% effective concentration (EC50) (PRV-Ea [4]; n = 3): 0.23 µg/mL
FKCRRWQWRMKKLGAPSITCVRRAF [lactoferricin B]	mild antiviral activity				54.1									cytotoxic activity at maximum concentration (PK-15 cells): did not exhibit obvious cytotoxic activity
GLFGVLAKVAAHVVPAIAEHF-NH2 (C-terminus assumed) [maculatin, maculatin 1.1]		10.1% and 10.11%	76.6			displayed inhibitory activities	No inhibitory effect	No inhibitory effect		43.4%	displayed inhibitory activities	inhibit most of the PRV particles	1.09	residual infectivity (PRV Ea strain): 0.0017%; activity against TGEV (in words) (TGEV WH-1 strain): limited activity; activity against PEDV (in words) (PEDV YNKM strain): limited activity; activity against PRRSV (in words) (PRRSV YA isolate): limited activity
GLLSVLGSVAKHVLPHVVPVIAEHL-NH2 (C-terminus assumed) [caerin, caerin 1.1]		around 2.3%	67.8	more than 30 folds		displayed inhibitory activities	No inhibitory effect	No inhibitory effect	0.2%	lower than 50%	displayed inhibitory activities	inhibit most of the PRV particles	2.63	residual infectivity (PRRSV YA isolate; n = 3): 41.1%
